Test results: patent US7723473B2, “Peptide antagonists of TGF-beta family members and therapeutic uses thereof” (St. Louis University, priority 1997, dated 2010)
One block for each substance: values may come before it.

Tests used:
[1] = test system: TGF-β receptors; assay: Inhibition of specific binding of 125I-TGF-β1 to TGF-β receptors in mink lung epithelial cells; settings: for effect on 125I-TGF-β1 binding to TGF-β receptors: even at a concentration of 136 μM; for TGF-β antagonist activity compared with the cysteine-containing peptides: C44S/C48S versions; for inhibition of 125I-TGF-β1 binding to TGF-β receptors (in words): various concentrations, FIG. 1D / control experiments; for IC50: 0.1 nM 125I-TGF-β1, 2.5 hr at 0° C., read-out: IC50 for inhibiting 125I-TGF-β1 binding to TGF-β receptors; for IC50 lower than that of peptide β1^25 (41-65) prior to conjugation: 125I-TGF-β1 binding
Method: Specific binding of ^125I-labeled TGF-β1, TGF-β2, and TGF-β3 (^125I-TGF-β1, ^125I-TGF-β2, and ^125I-TGF-β3) to TGF-β receptors in mink lung epithelial cells. ^125I-TGF-β1, ^125I-TGF-β2, and ^125I-TGF-β3 were prepared by iodination of TGF-β1, TGF-β2, and TGF-β3 with Na^125I as described previously (Ref. 7). The specific radioactivities of ^125I-TGF-β1, ^125I-TGF-β2, and ^125I-TGF-β3 were 1-3×10^5 cpm/ng. Mink lung epithelial cells were grown on 24-well clustered dishes to near confluence in Dulbecco's modified Eagle medium (DMEM) containing 10% fetal calf serum. The epithelial cells were incubated with 0.1 nM ^125I-TGF-β1, ^125I-TGF-β2, or ^125I-TGF-β3 both with and without 100-fold excess of unlabeled TGF-β1, TGF-β2, or TGF-β3 in binding buffer (Ref. 7). After 2.5 hr at 0° C., the cells were washed two times with binding buffer, and the cell-associated radioactivity was determined. […] All experiments were carried out in triplicate cell cultures.

[2] = molecular target: type V TGF-β receptor (Homo sapiens, UniProt Q07954); settings: Ref. 6; read-out: Kd for binding to the type V TGF-β receptor; cited from earlier work
Sequence of type V TGF-β receptor (Q07954 20-4544): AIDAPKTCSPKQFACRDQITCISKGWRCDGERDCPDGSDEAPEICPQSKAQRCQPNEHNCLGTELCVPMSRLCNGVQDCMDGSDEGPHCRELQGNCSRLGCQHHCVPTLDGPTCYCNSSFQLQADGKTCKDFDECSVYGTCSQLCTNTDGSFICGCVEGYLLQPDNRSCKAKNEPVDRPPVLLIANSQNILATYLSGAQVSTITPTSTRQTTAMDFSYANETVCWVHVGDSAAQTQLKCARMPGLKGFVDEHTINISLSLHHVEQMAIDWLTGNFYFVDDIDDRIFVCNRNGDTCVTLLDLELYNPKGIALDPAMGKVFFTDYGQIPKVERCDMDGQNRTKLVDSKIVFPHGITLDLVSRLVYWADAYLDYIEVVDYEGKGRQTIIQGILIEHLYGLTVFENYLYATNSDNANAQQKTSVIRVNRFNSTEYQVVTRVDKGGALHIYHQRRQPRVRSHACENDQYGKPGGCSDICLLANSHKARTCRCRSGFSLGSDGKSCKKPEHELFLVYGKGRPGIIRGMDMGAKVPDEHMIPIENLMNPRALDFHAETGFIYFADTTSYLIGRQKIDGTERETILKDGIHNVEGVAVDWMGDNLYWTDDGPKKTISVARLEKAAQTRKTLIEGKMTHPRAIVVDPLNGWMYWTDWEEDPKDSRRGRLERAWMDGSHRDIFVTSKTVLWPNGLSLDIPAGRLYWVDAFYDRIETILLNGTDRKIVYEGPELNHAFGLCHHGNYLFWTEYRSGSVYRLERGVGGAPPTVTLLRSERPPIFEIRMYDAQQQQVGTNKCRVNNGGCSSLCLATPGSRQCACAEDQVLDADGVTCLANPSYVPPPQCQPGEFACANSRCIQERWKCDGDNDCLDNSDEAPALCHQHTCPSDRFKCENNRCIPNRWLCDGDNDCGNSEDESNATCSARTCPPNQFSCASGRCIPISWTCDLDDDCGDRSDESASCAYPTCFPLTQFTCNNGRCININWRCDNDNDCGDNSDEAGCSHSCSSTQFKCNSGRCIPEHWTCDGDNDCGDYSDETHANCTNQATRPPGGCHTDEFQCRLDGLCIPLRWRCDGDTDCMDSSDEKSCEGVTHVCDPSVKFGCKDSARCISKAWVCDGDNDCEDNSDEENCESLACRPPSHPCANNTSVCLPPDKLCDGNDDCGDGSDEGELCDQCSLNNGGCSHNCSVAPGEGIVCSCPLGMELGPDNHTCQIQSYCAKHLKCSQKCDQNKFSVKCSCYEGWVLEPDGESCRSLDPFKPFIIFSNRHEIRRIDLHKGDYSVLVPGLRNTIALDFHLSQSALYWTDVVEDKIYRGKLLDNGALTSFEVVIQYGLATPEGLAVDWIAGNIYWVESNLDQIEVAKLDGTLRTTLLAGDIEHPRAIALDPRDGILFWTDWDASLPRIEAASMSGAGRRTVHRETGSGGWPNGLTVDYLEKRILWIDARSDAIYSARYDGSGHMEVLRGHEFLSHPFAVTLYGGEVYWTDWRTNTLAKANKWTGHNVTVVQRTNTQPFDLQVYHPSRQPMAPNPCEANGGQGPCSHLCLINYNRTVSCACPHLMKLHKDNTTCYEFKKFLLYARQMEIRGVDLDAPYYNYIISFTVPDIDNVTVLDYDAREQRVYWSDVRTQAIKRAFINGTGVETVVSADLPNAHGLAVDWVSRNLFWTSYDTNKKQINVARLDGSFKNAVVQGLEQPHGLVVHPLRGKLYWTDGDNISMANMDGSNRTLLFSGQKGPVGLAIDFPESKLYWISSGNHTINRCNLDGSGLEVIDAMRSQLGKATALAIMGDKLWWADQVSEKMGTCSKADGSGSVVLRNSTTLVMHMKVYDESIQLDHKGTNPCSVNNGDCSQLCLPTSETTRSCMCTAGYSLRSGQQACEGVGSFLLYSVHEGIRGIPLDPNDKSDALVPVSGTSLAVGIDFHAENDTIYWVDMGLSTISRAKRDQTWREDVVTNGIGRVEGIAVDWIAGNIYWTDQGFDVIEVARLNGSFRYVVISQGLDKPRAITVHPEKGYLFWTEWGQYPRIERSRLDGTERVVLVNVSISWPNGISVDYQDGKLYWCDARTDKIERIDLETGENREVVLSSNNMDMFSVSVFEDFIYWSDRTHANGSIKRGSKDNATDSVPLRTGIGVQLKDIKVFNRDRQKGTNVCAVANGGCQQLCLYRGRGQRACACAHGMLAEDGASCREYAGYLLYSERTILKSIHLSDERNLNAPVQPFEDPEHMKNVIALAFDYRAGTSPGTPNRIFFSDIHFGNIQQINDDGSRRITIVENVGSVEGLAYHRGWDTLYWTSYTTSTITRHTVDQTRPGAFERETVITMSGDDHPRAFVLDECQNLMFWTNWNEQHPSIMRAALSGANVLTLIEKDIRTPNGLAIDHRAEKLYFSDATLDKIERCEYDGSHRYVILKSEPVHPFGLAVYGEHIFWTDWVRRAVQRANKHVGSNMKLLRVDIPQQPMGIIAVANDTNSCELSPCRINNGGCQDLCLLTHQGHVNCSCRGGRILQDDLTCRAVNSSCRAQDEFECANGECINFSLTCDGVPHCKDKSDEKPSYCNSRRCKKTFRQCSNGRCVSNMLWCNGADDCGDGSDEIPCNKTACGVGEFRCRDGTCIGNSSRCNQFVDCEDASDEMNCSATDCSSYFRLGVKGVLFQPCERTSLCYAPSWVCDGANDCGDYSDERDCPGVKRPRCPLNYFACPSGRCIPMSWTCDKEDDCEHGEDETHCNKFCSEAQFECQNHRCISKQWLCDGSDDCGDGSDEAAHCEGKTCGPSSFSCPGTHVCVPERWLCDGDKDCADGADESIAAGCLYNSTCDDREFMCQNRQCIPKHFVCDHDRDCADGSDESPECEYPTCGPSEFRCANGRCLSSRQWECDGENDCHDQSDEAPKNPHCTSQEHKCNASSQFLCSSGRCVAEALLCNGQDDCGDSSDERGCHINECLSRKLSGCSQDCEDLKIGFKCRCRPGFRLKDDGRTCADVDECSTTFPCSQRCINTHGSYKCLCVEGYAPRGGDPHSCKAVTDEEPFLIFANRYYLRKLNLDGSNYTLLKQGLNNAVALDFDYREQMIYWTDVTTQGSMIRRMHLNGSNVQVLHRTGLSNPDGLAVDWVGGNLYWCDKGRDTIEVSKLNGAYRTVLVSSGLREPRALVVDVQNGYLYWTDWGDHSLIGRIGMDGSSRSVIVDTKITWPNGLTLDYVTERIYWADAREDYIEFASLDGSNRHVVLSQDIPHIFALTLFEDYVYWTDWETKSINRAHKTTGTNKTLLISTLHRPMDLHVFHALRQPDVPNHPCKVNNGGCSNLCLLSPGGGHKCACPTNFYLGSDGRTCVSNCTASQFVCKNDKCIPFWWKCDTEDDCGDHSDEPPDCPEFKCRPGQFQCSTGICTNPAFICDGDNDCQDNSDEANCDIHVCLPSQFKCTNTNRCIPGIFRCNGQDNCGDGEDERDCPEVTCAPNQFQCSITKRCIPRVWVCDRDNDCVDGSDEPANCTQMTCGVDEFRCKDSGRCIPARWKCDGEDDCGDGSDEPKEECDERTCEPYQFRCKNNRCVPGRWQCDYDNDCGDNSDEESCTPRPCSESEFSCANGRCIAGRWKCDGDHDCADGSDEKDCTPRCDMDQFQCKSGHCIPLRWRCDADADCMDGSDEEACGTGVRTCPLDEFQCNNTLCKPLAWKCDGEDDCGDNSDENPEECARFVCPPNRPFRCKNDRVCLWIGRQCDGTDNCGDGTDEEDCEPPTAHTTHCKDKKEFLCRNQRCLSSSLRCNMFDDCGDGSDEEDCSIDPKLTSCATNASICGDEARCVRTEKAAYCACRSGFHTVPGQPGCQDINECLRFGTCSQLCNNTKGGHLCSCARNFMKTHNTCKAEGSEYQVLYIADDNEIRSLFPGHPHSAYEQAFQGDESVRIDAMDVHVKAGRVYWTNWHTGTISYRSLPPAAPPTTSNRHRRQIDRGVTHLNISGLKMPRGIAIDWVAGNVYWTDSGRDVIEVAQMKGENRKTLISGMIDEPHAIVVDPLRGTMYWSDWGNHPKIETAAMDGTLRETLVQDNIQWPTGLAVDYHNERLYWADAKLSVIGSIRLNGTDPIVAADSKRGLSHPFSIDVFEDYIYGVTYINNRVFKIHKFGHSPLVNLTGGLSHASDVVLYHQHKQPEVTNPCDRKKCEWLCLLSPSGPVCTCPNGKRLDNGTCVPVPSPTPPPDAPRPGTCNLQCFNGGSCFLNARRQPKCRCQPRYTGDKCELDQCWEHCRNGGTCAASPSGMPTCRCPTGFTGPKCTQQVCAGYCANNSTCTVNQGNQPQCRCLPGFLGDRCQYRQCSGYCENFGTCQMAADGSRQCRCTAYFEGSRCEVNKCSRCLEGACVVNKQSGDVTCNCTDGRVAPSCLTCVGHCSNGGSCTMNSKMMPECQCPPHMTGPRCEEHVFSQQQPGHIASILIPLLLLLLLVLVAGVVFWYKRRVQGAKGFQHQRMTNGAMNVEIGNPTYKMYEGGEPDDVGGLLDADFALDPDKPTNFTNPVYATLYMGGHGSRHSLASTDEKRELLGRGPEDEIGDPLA

[3] = Stability in solution or gel during storage; assay type: physicochemical; settings: compared with cysteine-containing peptides
Excerpt: Preparation of peptides. The amino acid sequences of all peptides were derived from those of TGF-β1, TGF-β2, and TGF-β3. For peptides β1^25 (41-65), β2^25 (41-65), and β3^25 (41-65), other versions in which cysteine-44 and cysteine-48 were replaced by serine residues were also synthesized. […] The C44S/C48S version of peptide β1^25 (41-65) is designated SEQ ID NO:12, the C44S/C48S version of the peptide β2^25 (41-65) is designated SEQ ID NO: 13, and the C44S/C48S version of peptide of β3^25 (41-65) is designated SEQ ID NO:14. […] The peptides were synthesized using tert-butoxycarbonyl chemistry on an Applied Biosystems Model 431A peptide synthesizer and purified using Sephadex G-25 column chromatography and reverse-phase HPLC (C-8 column). The purity of the synthesized peptides were verified by automated Edman degradation on an Applied Biosystems Model 477A gas/liquid phase protein sequenator with an on-line Applied Biosystems Model 120A phenylthiohydantoin amino acid analyzer. The purity of all peptides was estimated to be ≧95%.
Preparation of IntraSite® gel containing TGF-β peptantagonist (peptide TGF-beta antagonist). 1 ml of sterile 6 mM peptide β1^25 (41-65) in phosphate buffered saline or 1 ml of sterile phosphate buffered saline was vigorously mixed with 3 ml of IntraSite® gel using two 10 ml syringes connected with a three-way connector. […] However, 1.5 mM of peptide β1^25 (41-65) was used throughout the experiments described below.

[4] = test system: TGF-β receptors; assay: Inhibition of specific binding of 125I-TGF-β3 to TGF-β receptors in mink lung epithelial cells; settings: 0.1 nM 125I-TGF-β3, 2.5 hr at 0° C.; read-out: IC50 for inhibiting 125I-TGF-β3 binding to TGF-β receptors
Method: (§1) Specific binding of ^125I-labeled TGF-β1, TGF-β2, and TGF-β3 (^125I-TGF-β1, ^125I-TGF-β2, and ^125I-TGF-β3) to TGF-β receptors in mink lung epithelial cells. ^125I-TGF-β1, ^125I-TGF-β2, and ^125I-TGF-β3 were prepared by iodination of TGF-β1, TGF-β2, and TGF-β3 with Na^125I as described previously (Ref. 7). The specific radioactivities of ^125I-TGF-β1, ^125I-TGF-β2, and ^125I-TGF-β3 were 1-3×10^5 cpm/ng. Mink lung epithelial cells were grown on 24-well clustered dishes to near confluence in Dulbecco's modified Eagle medium (DMEM) containing 10% fetal calf serum. The epithelial cells were incubated with 0.1 nM ^125I-TGF-β1, ^125I-TGF-β2, or ^125I-TGF-β3 both with and without 100-fold excess of unlabeled TGF-β1, TGF-β2, or TGF-β3 in binding buffer (Ref. 7). After 2.5 hr at 0° C., the cells were washed two times with binding buffer, and the cell-associated radioactivity was determined. The specific binding of ^125I-labeled TGF-β isoforms to TGF-β receptors in the cells was calculated by subtracting non-specific binding (in the presence of 100-fold excess of the unlabeled TGF-β isoforms) from total binding. All experiments were carried out in triplicate cell cultures.

[5] = test system: type V TGF-β receptor (TβR-V); assay: 125I-TGF-β1-affinity labeling of cell-surface type V TGF-β receptor in mink lung epithelial cells; assay type: binding; settings: various concentrations, FIG. 2 lanes 2-5
Method: ^125I-TGF-β1-affinity labeling of cell-surface TGF-β receptors in mink lung epithelial cells. Mink lung epithelial cells grown on 60-mm Petri dishes were incubated with 0.1 nM […] the presence of various concentrations of peptide β1^25 (41-65) or peptide β3^25 (41-65) in binding buffer. After 2.5 hr at 0° C., ^125I-TGF-β1-affinity labeling was carried out in the presence of DSS as described. The ^125I-TGF-β1-affinity-labeled TGF-β receptors were analyzed by 5% SDS-polyacrylamide gel electrophoresis under reducing conditions and autoradiography.

[6] = test system: TGF-β receptors; assay: Inhibition of specific binding of 125I-TGF-β2 to TGF-β receptors in mink lung epithelial cells; settings: 0.1 nM 125I-TGF-β2, 2.5 hr at 0° C.; read-out: IC50 for inhibiting 125I-TGF-β2 binding to TGF-β receptors
Method: as §1

[7] = test system: PAI-1 expression; assay: PAI-1 expression in mink lung epithelial cells (Northern blot); assay type: cell-based; settings: conjugates alone, data not shown
Method: RNA Analysis—Mink lung epithelial cells were grown overnight in 12-well clustered dishes in DMEM containing 10% fetal calf serum. The medium was then changed to DMEM containing 0.1% fetal calf serum and the cells were incubated with 0.25 and 2.5 ρM TGF-β1 in the presence of various concentrations of peptide β1^25 (41-65) for 2.5 hr. Total cellular RNA was extracted using RNAzol B (Tel-Test Inc.) according to the manufacturer's protocol. RNA was electrophoresed in 1.2% agarose-formaldehyde gel and transferred to Duralon-UV membranes using 10×SSC. The membranes were probed at 42° C. with a random-primed, radiolabeled 1-kb fragment from the Hind III and NeoI digests of PAI-1 cDNA and glyceraldehyde-3-phosphate dehydrogenase (“GAPDH”) cDNA. The blots were washed with 0.1×SSC containing 0.1% SDS at room temperature.

[8] = test system: mink lung epithelial cells; assay: Mink lung epithelial cell growth measured by DNA synthesis without added TGF-β1 (agonist activity); assay type: cell-based; settings: for EC50: no added TGF-β1, read-out: ED50 of growth inhibition as measured by DNA synthesis
Method: [Methyl-^3H]thymidine Incorporation—Mink lung epithelial cells grown on 24-well clustered dishes were incubated with various concentrations of TGF-β1 in the presence and absence of peptide β1^25 (41-65) or with various concentrations of peptide β1^25 (41-65)-CA, and peptide β1^25 (41-65)-BSA in DMEM containing 0.1% fetal calf serum. After 16 hr at 37° C., the cells were pulsed with 1 μCi/ml of [methyl-^3H]thymidine for 4 hr. The cells were then washed twice with 1 ml of 10% trichloroacetic acid and once with 0.5 ml of ethanol:ether (2:1, v/v). The cells were then dissolved in 0.4 ml of 0.2 N NaOH and counted with a liquid scintillation counter.

Substance: peptide β1^25 (51-75): pentacosapeptide, residues 51-75 of human TGF-β1 (IWSLDTQYSKVLALYNQHNPGASAA)
- effect on 125I-TGF-β1 binding to TGF-β receptors [1]: did not show any effect

Substance: TGF-β2: transforming growth factor β2
- Kd [2]: ~0.4 nM

Substance: peptide β1^25 (31-55): pentacosapeptide, residues 31-55 of human TGF-β1 (KWIHEPKGYHANFCLGPCPYIWSLD)
- effect on 125I-TGF-β1 binding to TGF-β receptors [1]: did not show any effect

Substance: TGF-β3: transforming growth factor β3
- Kd [2]: ~5 nM

Substance: SEQ ID NO:14: β3^25 (41-65) with cysteine-44 and cysteine-48 replaced by serine residues (ANFSSGPSPYLRSADTTHSTVLGLY; listed as Homo sapiens)
- stability in solution during storage [3]: better stability
- TGF-β antagonist activity compared with the cysteine-containing peptides [1]: same TGF-β antagonist activity

Substance: β1^10 (49-58) W52A (PYIASLDTQY)
- inhibition of 125I-TGF-β1 binding to TGF-β receptors (in words) [1]: similar

Substance: β2^10 (49-58) W52A (PYLASSDTQH)
- inhibition of 125I-TGF-β1 binding to TGF-β receptors (in words) [1]: failed to inhibit

Substance: β3^10 (49-58): decapeptide, residues 49-58 of TGF-β3 (SEQ ID NO:9) (PYLRSADTTH; listed as Homo sapiens)
- inhibitory activity on 125I-TGF-β1 binding ([1]; concentrations up to ~300 μM): did not show any inhibitory activity

- IC50 [4]: ~80 nM
Substance: ANFCAGACPYLWSSDTQHSRVLSLY [peptide β2^25 (41-65)]

Substance: β1^10 (49-58) S53A (PYIWALDTQY)
- inhibition of 125I-TGF-β1 binding to TGF-β receptors (in words) [1]: similar

- IC50 [1]: ~20000 nM
- IC50 [6]: ~20000 nM
Substance: ANFCSGPCPYLRSADTTHSTVLGLY [peptide β3^25 (41-65)]
- blocking the 125I-TGF-β1-affinity labeling of the type V TGF-β receptor [5]: weak activity

- IC50 [1]: ~40000 nM
Substance: β2^10 (49-58) S53A (PYLWASDTQH)

Substance: SEQ ID NO: 13: β2^25 (41-65) with cysteine-44 and cysteine-48 replaced by serine residues (ANFSAGASPYLWSSDTQHSRVLSLY; Human)
- stability in solution during storage [3]: better stability
- TGF-β antagonist activity compared with the cysteine-containing peptides [1]: same TGF-β antagonist activity

Substance: peptide β1^25 (71-95): pentacosapeptide, residues 71-95 of human TGF-β1 (GASAAPCCVPQALEPLPIVYYVGRK)
- effect on 125I-TGF-β1 binding to TGF-β receptors [1]: did not show any effect

Substance: SEQ ID NO:12: β1^25 (41-65) with cysteine-44 and cysteine-48 replaced by serine residues (ANFSLGPSPYIWSLDTQYSKVLALY; listed as Homo sapiens)
- stability in solution during storage [3]: better stability
- TGF-β antagonist activity compared with the cysteine-containing peptides [1]: same TGF-β antagonist activity

Substance: β1^10 (49-58) D55A (PYIWSLATQY)
- inhibition of 125I-TGF-β1 binding to TGF-β receptors (in words) [1]: similar

Substance: peptide β1^25 (81-105): pentacosapeptide, residues 81-105 of human TGF-β1 (QALEPLPIVYYVGRKPKVEQLSNMI)
- effect on 125I-TGF-β1 binding to TGF-β receptors [1]: did not show any effect

Substance: TGF-β1: transforming growth factor β1, 25-kDa dimeric protein
- Kd [2]: ~0.4 nM

- IC50 lower than that of peptide β1^25 (41-65) prior to conjugation [1]: ~20 fold
Substance: β1^25 (41-65)-BSA: peptide β1^25 (41-65) cross-linked with DSS to bovine serum albumin, ~5-10 peptides per carrier protein
- effects on the expression of PAI-1 [7]: neither showed significant effects
- EC50 [8]: ~100 nM

Substance: β1^25 (41-65) W52A/D55A (ANFCLGPCPYIASLATQYSKVLALY)
- inhibition of 125I-TGF-β1 binding to TGF-β receptors (in words) [1]: did not inhibit

Substance: CA: carrier protein human carbonic anhydrase I conjugated without peptides, control [reference compound]
- inhibition of 125I-TGF-β1 binding to TGF-β receptors (in words) [1]: did not have inhibitory activity

Substance: β3^25 (41-65) R52A/D55A (ANFCSGPCPYLASAATTHSTVLGLY)
- inhibition of 125I-TGF-β1 binding to TGF-β receptors (in words) [1]: did not inhibit

Substance: peptide β1^25 (61-85): pentacosapeptide, residues 61-85 of human TGF-β1 (VLALYNQHNPGASAAPCCVPQALEP)
- effect on 125I-TGF-β1 binding to TGF-β receptors [1]: did not show any effect

Substance: peptide β1^25 (21-45): pentacosapeptide, residues 21-45 of human TGF-β1 (YIDFRKDLGWKWIHEPKGYHANFCL)
- effect on 125I-TGF-β1 binding to TGF-β receptors [1]: did not show any effect

- IC50 [1]: ~50 nM
- IC50 lower than that of peptide β1^25 (41-65) prior to conjugation [1]: ~20 fold
Substance: β1^25 (41-65)-CA: peptide β1^25 (41-65) cross-linked with DSS to human carbonic anhydrase I, ~5-10 peptides per carrier protein
- effects on the expression of PAI-1 [7]: neither showed significant effects
- growth inhibition induced by conjugate ([8]; 0.2 μM conjugate): 30-40%
- EC50 [8]: ~100 nM

Substance: β2^10 (49-58) D55A (PYLWSSATQH)
- inhibition of 125I-TGF-β1 binding to TGF-β receptors (in words) [1]: failed to inhibit
